What was measured:
[1] = test system: congenital idiopathic and acquired nystagmus; conditions: human, in vivo; cited from earlier work
[2] = test system: acquired pendular nystagmus due to multiple sclerosis; conditions: in vivo; cited from earlier work
[3] = test system: congenital, idiopathic nystagmus (subgroup: acquired nystagmus in MS patients); assay: Double blind placebo controlled pilot trial of neramexane for treatment of nystagmus; format: in vivo, human; conditions: as compared to the placebo group, Neramexane mesylate up to 75 mg/d, 7 weeks
Description: The objective of this pilot project is to conduct a clinical trial to assess the efficacy of neramexane as a treatment for nystagmus.
The primary objective of this study is to investigate the safety and efficacy of Neramexane mesylate at daily doses of up to 75 mg in the treatment of congenital, idiopathic nystagmus in comparison to placebo. In addition, a subgroup of up to 20 MS patients suffering from acquired nystagmus are included and analyzed in an exploratory manner. In both patient groups, effects of treatment is assessed in comparison with placebo using a two-period cross-over design (two treatment periods of 7 weeks each, separated by a wash-out phase.
The study is designed as a randomized, double-blind placebo-controlled, pilot study using a two-period cross-over design. Suitable patients are randomly assigned to one of the two treatment sequences of the cross-over trial (sequence A-B or B-A), i.e. double-blind treatment with Neramexane (A) and matching placebo tablets (B).
Patients with congenital nystagmus (no pathology other than nystagmus; primary analysis population) or acquired nystagmus subsequent to MS (exploratory analysis only) • male or female outpatients aged between 18 and 80 years (inclusive) at screening; • patients with a metric visual acuity (VA) of 6/9 or lower 6/9); • for females of childbearing potential (last menses less than one year prior to enrollment): negative pregnancy test at baseline; either surgically sterile or use of a medically accepted method of contraception during the entire duration of the study; • congenital idiopathic nystagmus patients: uneventful gross neurological examination; • MS patients: diagnosis ‘multiple sclerosis’ as confirmed on the basis of McDonald criteria; • normal results of electroretinography (ERG) and visually evoked potential (VEP) testing; historical results may be accepted (period of acceptability to be defined) • patients having given written informed consent; • patient expected and willing to comply with the scheduled visits, dosing scheme (in particular placebo), and other requirements of the study; • results of normal physical examination, electrocardiogram (ECG), and safety laboratory at screening, or abnormal findings which are judged not clinically significant by the investigator; • Refraction prior to enrolment and, if required, prescription and receipt of new glasses or contact lenses prior to baseline visual acuity measurement
Neramexane mesylate 25 mg modified release tablets and matching placebo tablets are administered as film coated tablets. […]
Visual acuity (VA) is the standard by which the outcomes of drug therapy in nystagmus are measured in the framework of clinical trials. […]

[4] = test system: N-methyl-D-aspartate (NMDA) receptors; conditions: cited from earlier work

Compound | effectiveness in the treatment of congenital idiopathic and acquired nystagmus [1] | activity in acquired pendular nystagmus due to multiple sclerosis [2] | secondary outcome: expanded nystagmus acuity function [3] | secondary outcome: nystagmus intensity [3] | secondary outcome: reading ability [3] | primary outcomes, such as visual acuity ([3]; two-period cross-over) | NMDA-receptor affinity / mode of antagonism [4]
CC12CC3CC(C)(C1)CC(N)(C3)C2 [memantine] | may be effective | demonstrated activity | – | – | – | – | –
CC1(C)CC(C)(C)CC(C)(N)C1 [neramexane, 1-amino-1,3,3,5,5-pentamethylcyclohexane] | – | – | improvement | improvement | improvement | improvement | low to moderate-affinity, non-competitive NMDA-receptor antagonist

Source: patent US20100234358A1, “NERAMEXANE FOR THE TREATMENT OF NYSTAGMUS” (MERZ PHARMA GMBH & CO. KGAA, priority 2007, published 2010)
